Results on one compound are retold here after publication PMC10497752, “Heparins are potent inhibitors of ectonucleotide pyrophosphatase/phospho-diesterase-1 (NPP1) – a promising target for the immunotherapy of cancer” (Frontiers in Immunology, 2023).

Each structure is given as a SMILES string.

In assay [1] the target is T1, human NTPDase3 (Homo sapiens, UniProt O75355).
T1 construct: made in house; host or cells: COS-7 cells
T1 sequence (O75355 1-529): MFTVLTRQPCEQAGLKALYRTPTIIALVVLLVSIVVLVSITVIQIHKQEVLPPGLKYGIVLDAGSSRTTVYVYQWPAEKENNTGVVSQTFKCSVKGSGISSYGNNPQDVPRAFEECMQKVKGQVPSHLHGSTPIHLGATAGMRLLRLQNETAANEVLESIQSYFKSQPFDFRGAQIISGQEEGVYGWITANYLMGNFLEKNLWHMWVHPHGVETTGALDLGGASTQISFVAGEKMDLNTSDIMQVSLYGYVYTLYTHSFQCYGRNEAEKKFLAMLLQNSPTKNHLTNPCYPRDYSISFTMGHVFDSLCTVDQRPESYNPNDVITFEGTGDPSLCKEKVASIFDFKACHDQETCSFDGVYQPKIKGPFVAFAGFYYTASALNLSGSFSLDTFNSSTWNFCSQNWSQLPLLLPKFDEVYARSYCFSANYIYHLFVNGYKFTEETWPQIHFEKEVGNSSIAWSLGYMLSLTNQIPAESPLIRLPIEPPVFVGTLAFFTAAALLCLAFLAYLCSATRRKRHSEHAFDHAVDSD
Kind of assay: NTPDase CE-based assay, NTPDase3. Type of assay: biochemical. The settings on record: 20 µg/mL (12 µM). Here is the method: For monitoring the activity of human NTPDases (subtypes 1, 2, 3 and 8) in the presence of test compounds, a CE-based assay system was used, according to a published procedure ([11], [25]). The following concentrations of test compounds were investigated in initial screening studies: 63 IU/mL of compounds 1 and 2, 30 µM of compound 6. For selectivity studies, the following concentration were employed: 50 IU/mL of 1, 12 µM of 6, and 48 µM of 7. The amount of enzyme was selected according to previously performed enzymatic titration, and adjusted to ensure a 10–20% conversion rate. Enzymes were obtained by transfection of COS-7 cells using plasmids encoding human NTPDase1 (GenBank accession number U87967) ([26]), NTPDase2 (NM_203468) ([27]), a kind gift of Dr. A.F. Knowles (San Diego, CA), NTPDase3 (AF034840) ([28]), a kind gift of Dr. T.L. Kirley (Cincinnati, OH) and human NTPDase8 (AY430414) ([29]) and purified as previously described ([30], [31]). The reaction buffer consisted of 10 mM HEPES, 2 mM CaCl2, and 1 mM MgCl2, pH 7.4. In the CE assay, the selected substrate concentration (ATP) was 100 µM for all studied human NTPDases (-1, -2, -3 and -8). […] The released products were separated by CE and quantified by their UV-absorption at 260 nm with ADP and AMP as external standards, as previously described ([11]); positive and negative controls were included.

Assay [2] concerns the target T2, human NPP3 (Homo sapiens, UniProt O14638).
T2 construct: Soluble and purified human NPP3, prepared as previously described; made in house
T2 sequence (O14638 31-875 limits assumed): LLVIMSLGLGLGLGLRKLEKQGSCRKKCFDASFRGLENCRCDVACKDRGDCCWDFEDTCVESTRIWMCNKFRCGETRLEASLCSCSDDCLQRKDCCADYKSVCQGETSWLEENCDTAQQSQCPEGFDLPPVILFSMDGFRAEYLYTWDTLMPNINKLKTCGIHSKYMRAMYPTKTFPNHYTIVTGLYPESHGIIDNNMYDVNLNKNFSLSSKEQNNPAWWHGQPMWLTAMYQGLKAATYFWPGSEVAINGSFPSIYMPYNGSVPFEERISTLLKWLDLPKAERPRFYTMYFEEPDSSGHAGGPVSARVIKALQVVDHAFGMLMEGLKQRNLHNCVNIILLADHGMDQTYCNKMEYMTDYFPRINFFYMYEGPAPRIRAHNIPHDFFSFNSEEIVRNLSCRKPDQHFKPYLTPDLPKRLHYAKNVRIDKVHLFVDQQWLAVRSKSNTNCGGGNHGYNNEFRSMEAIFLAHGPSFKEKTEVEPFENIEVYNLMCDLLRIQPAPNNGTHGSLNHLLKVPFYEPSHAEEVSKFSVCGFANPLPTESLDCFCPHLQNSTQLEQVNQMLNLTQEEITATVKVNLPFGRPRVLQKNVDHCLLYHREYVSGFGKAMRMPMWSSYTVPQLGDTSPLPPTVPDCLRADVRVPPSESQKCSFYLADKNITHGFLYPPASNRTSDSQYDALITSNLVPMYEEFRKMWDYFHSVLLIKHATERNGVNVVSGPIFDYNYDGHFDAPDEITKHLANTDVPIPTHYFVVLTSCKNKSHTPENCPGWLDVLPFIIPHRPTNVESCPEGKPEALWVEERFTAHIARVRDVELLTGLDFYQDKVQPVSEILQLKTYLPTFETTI
Kind of assay: NPP3 colorimetric assay, p-Nph-5'-TMP as substrate. Format: biochemical. The following applies: 20 µg/mL (12 µM). Here is the method:
Compounds 1, 2, 5, 6, and 7 were screened at different concentrations using 400 μM of p-nitrophenyl thymidine monophosphate (p-Nph-5´-TMP) as substrate to study potential inhibition of NPP3 and NPP5 using a colorimetric assay as previously described ([21]). Soluble and purified human NPP3, prepared as previously described ([22]), and human NPP5 ([23]) were diluted in the assay buffer (50 mM TRIS HCl, 2 mM CaCl2, and 0.2 mM ZnCl2, pH 9.00), and 0.09 µg of NPP3, or 0.4 µg of NPP5 were employed. The mixtures were incubated for 30 min at 37°C in case of NPP3, and for 100 min at 37°C in case of NPP5, and the reactions were subsequently terminated by adding 20 μL of 1.0 N aq. NaOH solution. The assay is based on the enzymatic ester hydrolysis of p-Nph-5’-TMP which results in the formation of the yellow p-nitrophenolate anion. The absorption was measured at 400 nm using a BMG PheraStar FS plate reader (BMG Labtech GmbH, Ortenberg, Germany). Each analysis was repeated three times with triplicate measurements.

Regarding `CO[C@H]1O[C@H](COS(=O)(=O)O)[C@@H](O[C@@H]2O[C@@H](C(=O)O)[C@@H](O[C@H]3O[C@H](COS(=O)(=O)O)[C@@H](O[C@@H]4O[C@H](C(=O)O)[C@@H](O[C@H]5O[C@H](COS(=O)(=O)O)[C@@H](O)[C@H](O)[C@H]5NS(=O)(=O)O)[C@H](O)[C@H]4O)[C@H](OS(=O)(=O)O)[C@H]3NS(=O)(=O)O)[C@H](O)[C@H]2OS(=O)(=O)O)[C@H](O)[C@H]1NS(=O)(=O)O` [Compound 6, Fondaparinux], the “NTPDase3 inhibition, selectivity study” value in assay [1] is reported as “no effect”. In assay [2], the “NPP3 inhibition, selectivity study” value is reported as “no effect”.
